Experimental data taken from US20220151979A1, “COMPOSITION FOR PREVENTION OR TREATMENT OF CARDIOVASCULAR AND METABOLIC DISEASE COMPRISING NORANHYDROICARITIN” (SEOUL NATIONAL UNIVERSITY HOSPITAL, priority 2019, published 2022).

Legend:
[1] = test system: PCSK9 promoter; assay: PCSK9 promoter-reporter luciferase assay in HEK293T cells; format: cell-based, human; conditions: pGL4.14-PCSK9-transfected HEK293T cells, 2.5-20 μM, 18 hours
Description: In order to confirm the PCSK9 gene expression inhibitory effect of noranhydroicaritin, HEK293T cells were treated with noranhydroicaritin at various concentrations, and it was confirmed whether the expression of PCSK9 was inhibited through a luciferase assay.
i) A primer was prepared to contain KpnI and XhoI restriction enzyme sites in the PCSK9 promoter gene region, and then PCR (polymerase chain reaction) and electrophoresis on an agarose gel were performed to isolate PCSK9 promoter region DNA. A pGL4.14-[luc2/Hygro] vector containing a firefly luciferase as a reporter gene was treated with the same restriction enzymes (KpnI and XhoI), and then isolated via agarose gel electrophoresis and gel extraction. […]
ii) In order to measure the transcriptional activity of the PCSK9 promoter gene, HEK293T cells were transfected with pGL4.14-PCSK9, and then the luciferase activity of the cell extract was measured. […]
iii) After 18 hours of incubation, cells were washed with PBS one time, an appropriate amount of luciferase reagent was added to each well, then the plate was shaken for 15 min, the supernatant was obtained, and the transcriptional activity was measured. Passive lysis buffer was used, and the luciferase activity was measured using a microplate luminometer (Tecan). […]

[2] = test system: MCP-1; assay: Immunofluorescence of MCP-1 in carotid artery, mouse arteriosclerosis model; format: in vivo; conditions: 10 μg/g/day
Description: (§1) Carotid artery ligation was performed one week after injection of AAV-PCSK9 Virus (1×10^11 IFU/mL) and noranhydroicaritin (10 μg/g/day). After 3 weeks of ligation, it was confirmed whether the atherosclerosis model was completed, and gross plaque imaging and immunofluorescence were performed to confirm the arteriosclerosis inhibitory effect of noranhydroicaritin.
(§2) Furthermore, the arteriosclerosis inhibitory effect of noranhydroicaritin was confirmed using immunofluorescence. Specifically, a mouse carotid artery was obtained and fixed in 4% PFA for one day, and then prepared into a block. As the inflammatory response in blood vessels progresses, the arteriosclerosis worsens, and thus the marker […] of macrophages causing arteriosclerotic inflammatory response and TNF-α, IL-1B, and MCP-1, which are pro-inflammatory cytokines secreted when the inflammatory response occurs, were stained. Staining was performed using the antibody for each of CAP1(1:200), PCSK9(1:100), F4/80(1:100), TNF-α(1:100), […], and MCP-1(1:100), then imaging was performed using a confocal microscope, and […] was evaluated.

[3] = test system: PCSK9 mRNA; assay: PCSK9 mRNA by RealTime-PCR in HepG2 cells; format: cell-based, human; conditions: 24 hours
Excerpt: Proprotein convertase subtilisin/kexin type 9 (PCSK9) is an enzyme involved in lipid metabolism and is attached to low-density lipoprotein receptor (LDLR) bound to low-density lipoprotein (LDL) in the liver or other cell membranes to degrade LDLR so that LDLR cannot be regenerated into the cell membrane and cannot absorb extracellular LDL. Therefore, inhibition of PCSK9 production increases LDLR, decreases extracellular LDL, and lowers cholesterol levels, and thus lipid metabolism-related diseases may be alleviated. Therefore, in order to confirm the PCSK9 production inhibitory effect of noranhydroicaritin, HepG2 cells were treated with noranhydroicaritin at various concentrations, and then the relative quantity of PCSK9 mRAN was confirmed through RealTime-PCR.
Specifically, HepG2 cells were suspended at a concentration of 2.5×10^5 cells/mL, and 1 mL thereof was inoculated into each well of a […], and then maintained for one day. The HepG2 cells in the well plate were treated with kaempferol and noranhydroicaritin at concentrations of 2.5 μM, 5 μM, 10 μM, and 20 μM, and incubated for 24 hours, and then RNA was recovered, quantified, and stored at −70° C. Thereafter, cDNA was synthesized from the RNA and the quantity of PCSK9 mRNA was confirmed through RealTime-PCR analysis. The group treated only with DMSO was used as a negative control. […]

[4] = test system: TNF-α; assay: Immunofluorescence of TNF-α in carotid artery, mouse arteriosclerosis model; format: in vivo; conditions: 10 μg/g/day
Description: as §1, §2

[5] = test system: HepG2 cells; assay: MTT cell viability of HepG2 cells; format: cell-based, human
Description: In order to confirm the toxicity of noranhydroicaritin to cells, HepG2 cells (human liver hepatocellular carcinoma) were treated with each of kaempferol and noranhydroicaritin at various concentrations, and the cell viability of HepG2 cells at each concentration was calculated through the MTT screening method.
Specifically, HepG2 cells were suspended in DMEM (Welgene Inc.) medium containing 10% fetal bovine serum at a concentration of 1×10^5 cells/mL, and 100 μL thereof was inoculated into each well of a 96-well plate. After 4 hours, the HepG2 cells in the well plate were treated with each of kaempferol and noranhydroicaritin samples at concentrations of 2.5 μM, 5 μM, 10 μM, and 20 μM. After incubation for 24 hours, 5 μL of MTT (5 mg/mL) was added to the well plate, and the cells were further incubated for 4 hours. Thereafter, the medium was removed, 100 μL of DMSO was added to the well plate, the reaction was conducted, and then the absorbance was measured at 570 nm. As a control, cholesterol synthesis inhibitors atorvastatin (Ato) and rosuvastatin (Ros) were used. The cell viability was calculated according to the following mathematical formula as a value relative to 100% of the value for the negative control treated only with DMSO. The results are illustrated in FIG. 1. […]

With `CC(C)=CCc1c(O)cc(O)c2c(=O)c(O)c(-c3ccc(O)cc3)oc12` [Noranhydroicaritin, noranhydroicaritin] the PCSK9 luciferase activity [1] was “decreased in a noranhydroicaritin concentration-dependent manner”, the “expression of MCP-1 (immunofluorescence)” value [2] was “decreased” and the “PCSK9 production inhibitory effect (quantity of PCSK9 mRNA)” value ([3]; 2.5 μM and 5 μM) was “remarkably superior to that of the control”. The “PCSK9 production inhibitory effect (quantity of PCSK9 mRNA)” value ([3]; same concentration as control) was “superior to that of atorvastatin or rosuvastatin”, the “expression of TNF-α (immunofluorescence)” value [4] was “decreased” and the cell viability ([5]; 20 μM, 24 hours, MTT, relative to DMSO negative control) was at least 90%. The “cell viability compared with control” value ([5]; same concentration as atorvastatin or rosuvastatin) was “higher than the cell viability of the cells treated with atorvastatin or rosuvastatin”.
